According to patent US6703213B2, “Substrate analogs for MurG, methods of making same and assays using same” (The Trustees of Princeton University, priority 1998, dated 2004):

Molecular target: T1, wild type E. coli MurG (Escherichia coli, UniProt P17443)
T1 construct: made in house; host or cells: E. coli BL21(DE3)pLysS, pET3a vector
Assay: Initial rate assays with purified, soluble enzyme
Format: biochemical
Conditions: rapid equilibrium sequential mechanism assumed; 0.08 μM purified MurG; UDP-GlcNAc as varied substrate
Procedure: The following solutions are prepared prior to the assays: 1) 177.3 μM [^14C]-UDP-GlcNAc in H2O (0.05 mCi/mL); 2) 1.5 mM UDP-GlcNAc in H2O; 3) biotinylated Lipid I analog (1b) at 0.5 μg/μL; 4) 10×reaction buffer containing 50 mM HEPES (pH 7.9) and 5 mM MgCl2. The enzyme stock is prepared by diluting the purified enzyme with TBSE to a final concentration of 0.04 μg/μL in a 0.5 mL tube and storing at 4° C. for two days prior to running the assays.
Thirty reactions are prepared by individually mixing 2 μL of 10×reaction buffer with an appropriate amount of biotinylated Lipid I analog (1b), radioactive UDP-GlcNAc, nonradioactive UDP-GlcNAc, and H2O to a final volume of 18 μl. The final concentration for the Lipid I analog (1b) are 7 μM, 10 μM, 15 μM, 30 μM, 100 μM, and for UDP-GlcNAc 11 μM, 15 μM, 20 μM, 40 μM, 100 μM, 200 μM. Reactions are initiated by adding 2 μL of the enzyme stock and are run for 4 minutes at 24° C. Reactions are stopped by adding 10 μl of 1% (w/v) SDS.
Deionized H2O is added to each tube to a final volume of approximately 250 μL and the suspension is transferred to a […] 96-well filter plate fitted to a vacuum-line fitted MultiScreen Assay System (Millipore). The resin is washed 15 times with 0.2 mL deionized H2O. […] Samples are counted immediately on a Beckman LS5000 scintillation counter.

T1 sequence (P17443 whole entry): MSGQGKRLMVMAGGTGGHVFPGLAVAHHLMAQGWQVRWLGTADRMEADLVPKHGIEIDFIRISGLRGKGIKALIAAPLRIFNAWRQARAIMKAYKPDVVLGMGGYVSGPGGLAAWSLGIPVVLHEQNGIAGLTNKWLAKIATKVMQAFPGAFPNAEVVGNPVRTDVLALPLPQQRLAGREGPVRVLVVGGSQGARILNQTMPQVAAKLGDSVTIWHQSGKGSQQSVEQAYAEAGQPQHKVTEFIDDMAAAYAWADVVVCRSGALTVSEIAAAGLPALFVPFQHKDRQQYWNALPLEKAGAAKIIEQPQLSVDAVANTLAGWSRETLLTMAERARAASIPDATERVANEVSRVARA

`CC(=O)N[C@H]1[C@@H](OP(=O)(O)OP(=O)(O)OC[C@H]2O[C@@H](n3ccc(=O)[nH]c3=O)[C@H](O)[C@@H]2O)O[C@H](CO)[C@@H](O)[C@@H]1O` [UDP-GLCNAC, UDP-N-acetylglucosamine] was tested. Which KUDP-GLCNAC did it give?
The KUDP-GLCNAC was 110 µM.
